Values quoted from earlier work in patent publication US8945526B2, “Amphiphilic substance, and drug delivery system and molecular imaging system using the same” (Shimadzu Corporation, priority 2006, dated 2015).

Details: ICG singly administered

removal from the body: removed from a body in one hour
Compound: CC1(C)C(/C=C/C=C/C=C/C=C2\N(CCCCS(=O)(=O)O)c3ccc4ccccc4c3C2(C)C)=[N+](CCCCS(=O)(=O)[O-])c2ccc3ccccc3c21 [ICG, indocyanine green]
